# US20140128385A1 (NOVARTIS AG, priority 2011, published 2014)
# Structures can show the parent of a compound that is named as a salt.
# Biological target: T1, BACE-2 (Homo sapiens, UniProt Q9Y5Z0)
# T1 construct: Recombinant BACE-2 (extracellular domain, expressed in baculovirus and purified using standard methods); made in house
# T1 sequence (Q9Y5Z0 63-473 limits assumed): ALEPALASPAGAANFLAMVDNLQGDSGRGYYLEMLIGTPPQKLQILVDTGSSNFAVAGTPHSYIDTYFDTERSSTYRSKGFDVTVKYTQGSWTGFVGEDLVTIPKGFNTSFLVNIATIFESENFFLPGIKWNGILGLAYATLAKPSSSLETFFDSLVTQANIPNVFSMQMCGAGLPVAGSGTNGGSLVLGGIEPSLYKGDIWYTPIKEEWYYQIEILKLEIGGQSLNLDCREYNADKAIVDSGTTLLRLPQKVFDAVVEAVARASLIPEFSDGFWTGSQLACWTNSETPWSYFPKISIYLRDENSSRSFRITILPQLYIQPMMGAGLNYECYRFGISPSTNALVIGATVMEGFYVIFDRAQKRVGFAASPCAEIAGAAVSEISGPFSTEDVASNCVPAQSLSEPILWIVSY
# Experiment: assay for inhibition of BACE-2
# Assay type: biochemical
row,Molecule,IC50
1,CC1(C)OCC(c2cc(NC(=O)c3ccc(Br)cn3)ccc2F)(C(F)F)N=C1N (stereo not shown) [Example 80],0.064 µM
2,"NC1=N[C@@](c2cc(NC(=O)c3ncc(OC(F)F)cc3Cl)ccc2F)(C(F)F)COC1 [Example 185, 3-Chloro-5-difluoromethoxy-pyridine-2-carboxylic acid [3-((R)-5-amino-3-difluoromethyl-3,6-dihydro-2H-[1,4]oxazin-3-yl)-4-fluoro-phenyl]-amide hydrochloride]",0.199 µM
3,"5-Bromo-pyridine-2-carboxylic acid[3-((S)-3-amino-5-difluoromethyl-2,5,6,7-tetrahydro-[1,4]oxazepin-5-yl)-4-fluoro-phenyl]-amide hydrochloride [Example 96]",0.044 µM
4,Cc1cc(Br)cnc1C(=O)Nc1ccc(F)c([C@]2(CF)COCC(N)=N2)c1 [Example 91],0.006 µM
5,NC1=N[C@@](c2cc(NC(=O)c3ncc(Cl)cc3F)ccc2F)(C(F)F)COC1 [Example 140],0.015 µM
6,"Cc1cnc(C(=O)Nc2cccc(C3(C)COCC(N)=N3)c2)cn1 (stereo not shown) [Example 6, 5-Methyl-pyrazine-2-carboxylic acid [3-(5-amino-3-methyl-3,6-dihydro-2H-[1,4]oxazin-3-yl)-phenyl]-amide hydrochloride]",3.44 µM
7,Cl.[2H]c1nc(C(=O)Nc2ccc(F)c([C@]3(C(F)F)COCC(N)=N3)c2)c(C([2H])([2H])[2H])c([2H])c1Br [Example 116],0.009 µM
8,"CCN1CC(C)(c2cc(NC(=O)c3ccc(Br)cn3)ccc2F)N=C(N)C1=O (stereo not shown) [Example 191, 5-Bromo-pyridine-2-carboxylic acid [3-(6-amino-4-ethyl-2-methyl-5-oxo-2,3,4,5-tetrahydro-pyrazin-2-yl)-4-fluoro-phenyl]-amide hydrochloride]",0.03 µM
9,"CC1(c2cccc(NC(=O)c3ncccc3F)c2)COCC(N)=N1 (stereo not shown) [Example 9, 3-Fluoro-pyridine-2-carboxylic acid [3-(5-amino-3-methyl-3,6-dihydro-2H-[1,4]oxazin-3-yl)-phenyl]-amide hydrochloride]",0.663 µM
10,C[C@@]1(c2cc(NC(=O)c3ccc(Br)cn3)ccc2F)CO[C@@](C)(C(F)(F)F)C(N)=N1 [Example 68],0.003 µM
11,NC1=N[C@@](c2cc(NC(=O)c3ccc(C(F)(F)F)cn3)ccc2F)(C(F)F)COC1 [Example 47],0.251 µM
12,Cc1cc(Br)cnc1C(=O)Nc1ccc(F)c(C2(CF)COCC(N)=N2)c1 (stereo not shown) [Example 90],0.011 µM
13,"COCCN1CC(C)(c2cc(NC(=O)c3ncc(Cl)cc3Cl)ccc2F)N=C(N)C1=O (stereo not shown) [Example 195, 3,5-Dichloro-pyridine-2-carboxylic acid {3-[6-amino-4-(2-methoxy-ethyl)-2-methyl-5-oxo-2,3,4,5-tetrahydro-pyrazin-2-yl]-4-fluoro-phenyl}-amide hydrochloride]",0.006 µM
14,Cl.[2H]c1nc(C(=O)Nc2ccc(F)c([C@]3(CF)COCC(N)=N3)c2)c(C([2H])([2H])[2H])c([2H])c1Cl [Example 93],0.0014 µM
15,Cn1cc([N+](=O)[O-])c(C(=O)Nc2ccc(F)c([C@]3(C(F)F)COCC(N)=N3)c2)n1 [Example 151],0.376 µM
16,"NC1=N[C@@](c2cc(NC(=O)c3ncc(OCF)cc3Cl)ccc2F)(C(F)F)COC1 [Example 184, 3-Chloro-5-fluoromethoxy-pyridine-2-carboxylic acid [3-((R)-5-amino-3-di-fluoromethyl-3,6-dihydro-2H-[1,4]oxazin-3-yl)-4-fluoro-phenyl]-amide hydrochloride]",0.047 µM
17,"NC1=N[C@@](c2cc(NC(=O)c3ccc(=O)[nH]c3)ccc2F)(C(F)F)COC1 [Example 162, 6-Oxo-1,6-dihydro-pyridine-3-carboxylic acid [3-((R)-5-amino-3-difluoromethyl-3,6-dihydro-2H-[1,4]oxazin-3-yl)-4-fluoro-phenyl]-amide hydrochloride]",> 10 µM
18,"NC1=NC(CF)(c2cccc(NC(=O)c3ccc(Cl)cn3)n2)COC1 (stereo not shown) [Example 259, 5-{6-[(5-Chloro-pyridine-2-carbonyl)-amino]-pyridin-2-yl}-5-fluoromethyl-5,6-dihydro-2H-[1,4]oxazin-3-yl-ammonium trifluoro acetate]",1.39 µM
19,Cl.[2H]c1nc(C(=O)Nc2ccc(F)c([C@]3(C(F)F)COCC(N)=N3)c2)c(C([2H])([2H])[2H])c([2H])c1Cl [Example 115],0.003 µM

row,Molecule,IC50
1,"CC1(c2cccc(NC(=O)c3ncc(C(F)(F)F)cc3Cl)c2)COCC(N)=N1 (stereo not shown) [Example 17, 3-Chloro-5-trifluoromethyl-pyridine-2-carboxylic acid [3-(5-amino-3-methyl-3,6-dihydro-2H-[1,4]oxazin-3-yl)-phenyl]-amide hydrochloride]",0.694 µM
2,"NC1=NC(c2cccc(NC(=O)c3ccc(Br)cn3)c2)(C(F)F)COC1 (stereo not shown) [Example 34, 5-Bromo-pyridine-2-carboxylic acid [3-(5-amino-3-difluoromethyl-3,6-dihydro-2H-[1,4]oxazin-3-yl)-phenyl]-amide hydrochloride]",0.345 µM
3,NC1=NC(c2cc(NC(=O)c3ccc(Br)cn3)c(F)cc2F)(C(F)F)COC1 (stereo not shown) [Example 81],4.29 µM
4,N#Cc1ccc(C(=O)Nc2ccc(F)c(C3(CF)COCC(N)=N3)c2)nc1 (stereo not shown) [Example 89],0.152 µM
5,"CN1CC(C)(c2cc(NC(=O)c3ncc(Cl)cc3Cl)ccc2F)N=C(N)C1=O (stereo not shown) [Example 192, 3,5-Dichloro-pyridine-2-carboxylic acid [3-(6-amino-2,4-dimethyl-5-oxo-2,3,4,5-tetrahydro-pyrazin-2-yl)-4-fluoro-phenyl]-amide hydrochloride]",0.013 µM
6,"C[C@@]1(c2cc(NC(=O)c3ncc(Cl)cc3F)ccc2F)CO[C@@](C)(C(F)(F)F)C(N)=N1 [Example 235, 5-Chloro-3-fluoro-pyridine-2-carboxylic acid [3-((3R,6R)-5-amino-3,6-dimethyl-6-trifluoromethyl-3,6-dihydro-2H-[1,4]oxazin-3-yl)-4-fluoro-phenyl]-amide hydrochloride]",0.002 µM
7,"N#Cc1ccc(C(=O)Nc2ccc(F)c(C3(C(F)F)CNCC(N)=N3)c2)nc1 (stereo not shown) [Example 202, 5-Cyano-pyridine-2-carboxylic acid [3-(6-amino-2-difluoromethyl-2,3,4,5-tetrahydro-pyrazin-2-yl)-4-fluoro-phenyl]-amide]",0.066 µM
8,NC1=N[C@@](c2cc(NC(=O)c3ncc(C(F)(F)F)cc3Cl)ccc2F)(C(F)F)COC1 [Example 46],0.13 µM
9,"Cc1cc(OC(F)F)cnc1C(=O)Nc1ccc(F)c(C2(C)COC(CF)(CF)C(N)=N2)c1 (stereo not shown) [Example 253, 5-Difluoromethoxy-3-methyl-pyridine-2-carboxylic acid [3-(5-amino-6,6-bis-fluoromethyl-3-methyl-3,6-dihydro-2H-[1,4]oxazin-3-yl)-4-fluoro-phenyl]-amide]",0.426 µM
10,"[2H]C([2H])([2H])OCc1cc(C#N)cnc1C(=O)Nc1ccc(F)c([C@]2(C)CO[C@@](C)(C(F)(F)F)C(N)=N2)c1 [Example 245, 5-Cyano-3-trideuteromethoxymethyl-pyridine-2-carboxylic acid [3-((3R,6R)-5-amino-3,6-dimethyl-6-trifluoromethyl-3,6-dihydro-2H-[1,4]oxazin-3-yl)-4-fluoro-phenyl]-amide]",0.013 µM
11,Cc1cnc(C(=O)Nc2ccc(F)c([C@]3(C(F)F)COCC(N)=N3)c2)cn1 [Example 48],0.511 µM
12,"COCCOc1cnc(C(=O)Nc2ccc(F)c([C@]3(C(F)F)COCC(N)=N3)c2)c(C)n1 [Example 178, 5-(2-Methoxy-ethoxy)-3-methyl-pyrazine-2-carboxylic acid [3-((R)-5-amino-3-difluoromethyl-3,6-dihydro-2H-[1,4]oxazin-3-yl)-4-fluoro-phenyl]-amide hydrochloride]",2.96 µM
13,"COC(=O)N1CC(N)=NC(c2cc(NC(=O)c3ccc(C#N)cn3)ccc2F)(C(F)F)C1 (stereo not shown) [Example 205, 5-Amino-3-{5-[(5-cyano-pyridine-2-carbonyl)-amino]-2-fluoro-phenyl}-3-difluoromethyl-3,6-dihydro-2H-pyrazine-1-carboxylic acid methyl ester]",0.104 µM
14,"CC1(c2cc(NC(=O)c3ccc(Cl)cn3)ccc2F)N=C(N)COCC1(F)F (stereo not shown) [Example 100, N-(3-(3-amino-6,6-difluoro-5-methyl-2,5,6,7-tetrahydro-1,4-oxazepin-5-yl)-4-fluorophenyl)-5-chloropicolinamide]",0.017 µM
15,"Cc1cc(C(F)F)cnc1C(=O)Nc1ccc(F)c([C@]2(C)CO[C@@](C)(C(F)(F)F)C(N)=N2)c1 [Example 241, 5-Difluoromethyl-3-methyl-pyridine-2-carboxylic acid [3-((3R,6R)-5-amino-3,6-dimethyl-6-trifluoromethyl-3,6-dihydro-2H-[1,4]oxazin-3-yl)-4-fluoro-phenyl]-amide hydrochloride]",0.008 µM
16,"CN1CC(N)=NC(C)(c2cc(NC(=O)c3ccc(Br)cn3)ccc2F)C1 (stereo not shown) [Example 187, 5-Bromo-pyridine-2-carboxylic acid [3-(6-amino-2,4-dimethyl-2,3,4,5-tetrahydro-pyrazin-2-yl)-4-fluoro-phenyl]-amide]",0.104 µM
17,"COC(=O)N1CC(N)=NC(c2cc(NC(=O)c3ccc(Br)cn3)ccc2F)(C(F)F)C1 (stereo not shown) [Example 204, 5-Amino-3-{5-[(5-bromo-pyridine-2-carbonyl)-amino]-2-fluoro-phenyl}-3-difluoromethyl-3,6-dihydro-2H-pyrazine-1-carboxylic acid methyl ester]",0.01 µM
18,Cc1c(C(=O)Nc2ccc(F)c([C@]3(C(F)F)COCC(N)=N3)c2)oc2ccc(Br)cc12 [Example 114],0.116 µM
